Data from patent publication US12458052B2, “Human milk oligosaccharides for use in enhancing executive function” (Glycom A/S, priority 2019, dated 2025).

Test system: genes related to myelination; myelination and myelin sheath pathway
Assay: gene expression and KEGG pathway analysis of brain samples, cross-fostering to St6Gal1 KO dams
Format: in vivo, mice
Details: presence in maternal milk, especially during early life
Source text: Adult wild-type (WT) B6.129 and heterozygous (HZ) B6.129-St6gal1^tm2Jxm breeding pairs (four males and four females and three males and four females, respectively) were purchased from a commercial breeder (The Jackson Laboratory). Upon arrival, same-sex mice were housed in same-sex groups of 2-3 in type-1 polycarbonate cages (33.0×13.0×14.0 cm) equipped with sawdust bedding, an enrichment bag (Mucedola, Settimo Milanese, Italy), metal top and ad libitum water and food pellets (Mucedola, Settimo Milanese, Italy). Mice were maintained on a reversed 12-h-light-dark cycle (light on at 7:00 PM) in an air-conditioned room (temperature 21±1° C. and relative humidity 60±10%). Two weeks after arrival, breeding triads (one male, two females) were formed. After two weeks of mating, male mice were removed and females were housed individually in standard type-1 cages. Females were checked daily for delivery and the day in which they gave birth was designated as postnatal day (PND) 0. […]
Quantification is performed using Quant It Ribogreen assay (Life Technologies) QC assessment is performed using Standard sensitivity RNA kit on Fragment Analyzer 96 (Agilent). […]
Library generation starts with oligodT priming containing the Illumina-specific Read 2 linker sequence. […] The random primer contains the Illumina-specific Read 1 linker sequence. […]

Q: For `CC(=O)N[C@H]1[C@H]([C@H](O)[C@H](O)CO)O[C@@](OC[C@H]2O[C@@H](O[C@H]3[C@H](O)[C@@H](O)[C@H](O)O[C@@H]3CO)[C@H](O)[C@@H](O)[C@H]2O)(C(=O)O)C[C@@H]1O` [6′-SL, 6′-sialyllactose], which “optimal myelination of the prefrontal cortex” value is on record?
A: necessary
